Among the data in ChEMBL document CHEMBL3044915, “Synthesis and Insecticidal Activity of N-(4-Aryloxybenzyl)-pyrazolecarboxamide Derivatives” (1996) are mortality values, retold here.

Common to all, as to format: functional
Assay [1] has as its system Tetranychus urticae. In words: Insecticidal activity against Tetranychus urticae (two-spotted spider mite) assessed as mortality at 3.1 ppm.
The subject of assay [2] is Tetranychus urticae. The assay is described as follows: Insecticidal activity against Tetranychus urticae (two-spotted spider mite) assessed as mortality at 12.5 ppm.
For assay [3], the system named is Plutella xylostella. In words: Insecticidal activity against Plutella xylostella (diamondback moth) third-instar larvae in compound treated cabbage leaf assessed as mortality at 0.8 ppm measured after 4 days. To be noted: 96 h.
Assay [4] relates to Plutella xylostella. In words: Insecticidal activity against Plutella xylostella (diamondback moth) third-instar larvae in compound treated cabbage leaf assessed as mortality at 3.1 ppm measured after 4 days. The settings on record: 96 h.
In assay [5] the test system is Plutella xylostella. The assay is described as follows: Insecticidal activity against Plutella xylostella (diamondback moth) third-instar larvae in compound treated cabbage leaf assessed as mortality at 12.5 ppm measured after 4 days. To be noted: 96 h.
Assay [6] relates to Myzus persicae. In words: Insecticidal activity against Myzus persicae (green peach aphid) assessed as mortality at 0.8 ppm measured after 4 days. The settings on record: 96 h.
Assay [7] relates to Myzus persicae. The assay is described as follows: Insecticidal activity against Myzus persicae (green peach aphid) assessed as mortality at 3.1 ppm measured after 4 days. The settings on record: 96 h.
In assay [8] the test system is Myzus persicae. In words: Insecticidal activity against Myzus persicae (green peach aphid) assessed as mortality at 12.5 ppm measured after 4 days. The settings on record: 96 h.
Assay [9] relates to Nilaparvata lugens. In words: Insecticidal activity against Nilaparvata lugens (brown planthopper) third-instar larvae assessed as mortality at 0.8 ppm applied through spray measured after 5 days. To be noted: 120 h.
Assay [10] has as its system Nilaparvata lugens. The assay is described as follows: Insecticidal activity against Nilaparvata lugens (brown planthopper) third-instar larvae assessed as mortality at 3.1 ppm applied through spray measured after 5 days. The settings on record: 120 h.
Assay [11] has as its system Nilaparvata lugens. In words: Insecticidal activity against Nilaparvata lugens (brown planthopper) third-instar larvae assessed as mortality at 12.5 ppm applied through spray measured after 5 days. To be noted: 120 h.
In assay [12] the test system is Nephotettix cincticeps. The assay is described as follows: Insecticidal activity against green rice Nephotettix cincticeps (green rice leafhopper) third-instar larvae assessed as mortality at 0.8 ppm applied through spray measured after 4 days. The settings on record: Nephotettix cincticeps, 96 h.
In assay [13] the test system is Nephotettix cincticeps. The assay is described as follows: Insecticidal activity against green rice Nephotettix cincticeps (green rice leafhopper) third-instar larvae assessed as mortality at 3.1 ppm applied through spray measured after 4 days. To be noted: Nephotettix cincticeps, 96 h.
Assay [14] has as its system Nephotettix cincticeps. The assay is described as follows: Insecticidal activity against green rice Nephotettix cincticeps (green rice leafhopper) third-instar larvae assessed as mortality at 12.5 ppm applied through spray measured after 4 days. The settings on record: 96 h.

For `CC1CCc2c1nn(C)c2C(=O)NCc1ccc(Oc2ccc([N+](=O)[O-])cc2)cc1` (stereo not drawn), the mortality at 3.1 ppm is 30% in the assay on Tetranychus urticae [1]; 100% in the assay with Plutella xylostella [4]; 100% in the assay on Myzus persicae [7]; 80% with Nilaparvata lugens [10]; 100% with Nephotettix cincticeps [13]. The mortality at 12.5 ppm stood at 80% with Tetranychus urticae [2]; 100% in the assay on Plutella xylostella [5]; 100% with Myzus persicae [8]; 80% with Nilaparvata lugens [11]; 100% with Nephotettix cincticeps [14]. Also, the mortality at 0.8 ppm with Plutella xylostella [3] worked out at 0%; in the assay with Myzus persicae [6], 30%; in the assay with Nilaparvata lugens [9] it was 0%; in the assay on Nephotettix cincticeps [12] it was 30%.
Consider `CSc1ccc(Oc2ccc(CNC(=O)c3c4c(nn3C)C(C)CC4)cc2)cc1` (stereo not drawn), for which the mortality at 3.1 ppm in the assay with Tetranychus urticae [1] was found to be 80%; in the assay with Plutella xylostella [4], 80%; in the assay with Myzus persicae [7] it was 100%; with Nilaparvata lugens [10] it was 30%; in the assay on Nephotettix cincticeps [13], 80%. Further, the mortality at 12.5 ppm with Tetranychus urticae [2] is 100%; in the assay on Plutella xylostella [5], 100%; in the assay on Myzus persicae [8], 100%; with Nilaparvata lugens [11], 80%; in the assay on Nephotettix cincticeps [14], 100%. The mortality at 0.8 ppm in the assay with Plutella xylostella [3] was 0%; in the assay on Myzus persicae [6] it was 0%; in the assay on Nilaparvata lugens [9], 30%; in the assay on Nephotettix cincticeps [12] it was 30%.

Usually mortality stands for the percentage killed.
